Test results from PubChem BioAssay (NCI).
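Tested at 5 concentrations; 48 h exposure; 96-well plates; endpoints linearly interpolated, else capped at highest concentration. The concentration for 50% growth inhibition is given as GI50. TGI marks complete inhibition of growth.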

Columns and labels:
Test in all cases: DTP human tumour cell line panel, 48 h; in the data active means GI50 below about 0.43 µM; inactive means the rest
EKVX NSCLC = test system: EKVX NSCLC
IGROV1 ovarian = test system: IGROV1 ovarian
MOLT-4 leukemia = test system: MOLT-4 leukemia
OVCAR-8 ovarian = test system: OVCAR-8 ovarian
786-0 renal = test system: 786-0 renal
SW-620 colon = test system: SW-620 colon
CCRF-CEM leukemia = test system: CCRF-CEM leukemia
SK-MEL-28 melanoma = test system: SK-MEL-28 melanoma
SR leukemia = test system: SR leukemia
LOX IMVI melanoma = test system: LOX IMVI melanoma
UACC-62 melanoma = test system: UACC-62 melanoma
RPMI-8226 leukemia = test system: RPMI-8226 leukemia
NCI-H23 lung = test system: NCI-H23 lung
SNB-75 CNS = test system: SNB-75 CNS
TK-10 renal = test system: TK-10 renal
HT29 colon = test system: HT29 colon
PC-3 prostate = test system: PC-3 prostate
T-47D breast = test system: T-47D breast
SK-MEL-5 melanoma = test system: SK-MEL-5 melanoma
RXF 393 renal = test system: RXF 393 renal
DU-145 prostate = test system: DU-145 prostate
M14 melanoma = test system: M14 melanoma
HOP-62 NSCLC = test system: HOP-62 NSCLC
HCC-2998 colon = test system: HCC-2998 colon
MDA-MB-231 breast = test system: MDA-MB-231 breast
SK-OV-3 ovarian = test system: SK-OV-3 ovarian
SF-268 CNS = test system: SF-268 CNS
COLO 205 colon = test system: COLO 205 colon
KM12 colon = test system: KM12 colon
HCT-15 colon = test system: HCT-15 colon
SF-295 CNS = test system: SF-295 CNS
MALME-3M melanoma = test system: MALME-3M melanoma
MDA-N = test system: MDA-N
SN12C renal = test system: SN12C renal
HL-60(TB) leukemia = test system: HL-60(TB) leukemia
MCF7 breast = test system: MCF7 breast
K-562 leukemia = test system: K-562 leukemia
UACC-257 melanoma = test system: UACC-257 melanoma
CAKI-1 renal = test system: CAKI-1 renal
A549 NSCLC = test system: A549 NSCLC
NCI-H460 lung = test system: NCI-H460 lung
HCT-116 colon = test system: HCT-116 colon
HS 578T breast = test system: HS 578T breast
OVCAR-3 ovarian = test system: OVCAR-3 ovarian
A498 renal = test system: A498 renal
SF-539 CNS = test system: SF-539 CNS
OVCAR-5 ovarian = test system: OVCAR-5 ovarian
SK-MEL-2 melanoma = test system: SK-MEL-2 melanoma
U251 CNS = test system: U251 CNS
OVCAR-4 ovarian = test system: OVCAR-4 ovarian
NCI-H522 lung = test system: NCI-H522 lung
UO-31 renal = test system: UO-31 renal
MDA-MB-435 = test system: MDA-MB-435
NCI-H226 lung = test system: NCI-H226 lung
HOP-92 NSCLC = test system: HOP-92 NSCLC
SNB-19 CNS = test system: SNB-19 CNS
ACHN renal = test system: ACHN renal
NCI/ADR-RES ovarian = test system: NCI/ADR-RES ovarian
BT-549 breast = test system: BT-549 breast

C/C(=C\CCC1=CC(=O)OC1)CC[C@@H]1[C@H]2C(=O)CC(C)[C@@]3(C)CC[C@]1(C)[C@@]23C (some centres not stated)
> 10 µM: TGI (EKVX NSCLC) | TGI (IGROV1 ovarian) | TGI (MOLT-4 leukemia) | TGI (OVCAR-8 ovarian) | TGI (786-0 renal) | TGI (SW-620 colon) | TGI (CCRF-CEM leukemia) | TGI (SK-MEL-28 melanoma) | TGI (SR leukemia) | TGI (LOX IMVI melanoma) | TGI (UACC-62 melanoma) | TGI (RPMI-8226 leukemia) | TGI (NCI-H23 lung) | TGI (SNB-75 CNS) | TGI (TK-10 renal) | TGI (HT29 colon) | TGI (PC-3 prostate) | TGI (T-47D breast) | TGI (SK-MEL-5 melanoma) | TGI (RXF 393 renal) | TGI (DU-145 prostate) | TGI (M14 melanoma) | TGI (HOP-62 NSCLC) | TGI (HCC-2998 colon) | TGI (MDA-MB-231 breast) | TGI (SK-OV-3 ovarian) | TGI (SF-268 CNS) | TGI (COLO 205 colon) | TGI (KM12 colon) | TGI (HCT-15 colon) | TGI (SF-295 CNS) | TGI (MALME-3M melanoma) | TGI (MDA-N) | TGI (SN12C renal) | TGI (HL-60(TB) leukemia) | TGI (MCF7 breast) | TGI (K-562 leukemia) | TGI (UACC-257 melanoma) | TGI (CAKI-1 renal) | TGI (A549 NSCLC)

CCN(CC)C(=O)CCCCCCCCC1CO1 (configuration not stated)
> 100 µM: TGI (EKVX NSCLC) | TGI (NCI-H460 lung) | TGI (IGROV1 ovarian) | TGI (HCT-116 colon) | TGI (MOLT-4 leukemia) | TGI (OVCAR-8 ovarian) | TGI (786-0 renal) | TGI (SW-620 colon) | TGI (HS 578T breast) | TGI (CCRF-CEM leukemia) | TGI (SK-MEL-28 melanoma) | TGI (SR leukemia) | TGI (OVCAR-3 ovarian) | TGI (LOX IMVI melanoma) | TGI (A498 renal) | TGI (UACC-62 melanoma) | TGI (RPMI-8226 leukemia) | TGI (NCI-H23 lung) | TGI (SNB-75 CNS) | TGI (TK-10 renal) | TGI (HT29 colon) | TGI (PC-3 prostate) | TGI (SF-539 CNS) | TGI (SK-MEL-5 melanoma) | TGI (RXF 393 renal) | TGI (DU-145 prostate) | TGI (M14 melanoma) | TGI (HOP-62 NSCLC) | TGI (OVCAR-5 ovarian) | TGI (SK-MEL-2 melanoma) | TGI (U251 CNS) | TGI (MDA-MB-231 breast) | TGI (OVCAR-4 ovarian) | TGI (SK-OV-3 ovarian) | TGI (NCI-H522 lung) | TGI (SF-268 CNS) | TGI (COLO 205 colon) | TGI (KM12 colon) | TGI (HCT-15 colon) | TGI (SF-295 CNS) | TGI (MALME-3M melanoma) | TGI (UO-31 renal) | TGI (MDA-N) | TGI (MDA-MB-435) | TGI (SN12C renal) | TGI (NCI-H226 lung) | TGI (HL-60(TB) leukemia) | TGI (MCF7 breast) | TGI (K-562 leukemia) | TGI (UACC-257 melanoma) | TGI (CAKI-1 renal) | TGI (A549 NSCLC) | TGI (HOP-92 NSCLC) | TGI (SNB-19 CNS) | TGI (ACHN renal) | TGI (NCI/ADR-RES ovarian)

O=Nc1c2cccnc2n2nnc3ccc(Cl)cc3c12
1.49 µM: TGI (MOLT-4 leukemia)
11.2 µM: TGI (OVCAR-8 ovarian) | TGI (UACC-62 melanoma)
1.33 µM: TGI (SW-620 colon)
1.7 µM: TGI (RPMI-8226 leukemia) | TGI (T-47D breast)
6.66 µM: TGI (K-562 leukemia)
10.3 µM: TGI (A498 renal)
7.8 µM: TGI (NCI-H460 lung)
5.07 µM: TGI (COLO 205 colon)
5.36 µM: TGI (SK-MEL-28 melanoma)
23.8 µM: TGI (A549 NSCLC)
21 µM: TGI (NCI-H226 lung)
2.76 µM: TGI (CCRF-CEM leukemia)
7.69 µM: TGI (IGROV1 ovarian)
13.2 µM: TGI (U251 CNS)
2.93 µM: TGI (DU-145 prostate)
4.75 µM: TGI (KM12 colon)
10.2 µM: TGI (NCI-H23 lung)
10.5 µM: TGI (SF-539 CNS)
1.45 µM: TGI (OVCAR-3 ovarian)
12.3 µM: TGI (BT-549 breast)
50 µM: TGI (HL-60(TB) leukemia)
1.75 µM: TGI (HOP-92 NSCLC)
1.64 µM: TGI (RXF 393 renal)
2.02 µM: TGI (ACHN renal)
7.98 µM: TGI (PC-3 prostate)
8.36 µM: TGI (M14 melanoma)
4.95 µM: TGI (HCC-2998 colon) | TGI (MALME-3M melanoma)
16.2 µM: TGI (SF-295 CNS)
active: GI50 (HCT-116 colon) 0.316 µM | GI50 (MOLT-4 leukemia) 0.0476 µM | GI50 (SW-620 colon) 0.331 µM | GI50 (CCRF-CEM leukemia) 0.0452 µM | GI50 (SR leukemia) 0.0458 µM | GI50 (RPMI-8226 leukemia) 0.258 µM | GI50 (T-47D breast) 0.412 µM | GI50 (HL-60(TB) leukemia) 0.272 µM | GI50 (K-562 leukemia) 0.239 µM | GI50 (HOP-92 NSCLC) 0.0999 µM | GI50 (ACHN renal) 0.371 µM
6.19 µM: TGI (LOX IMVI melanoma)
13.3 µM: TGI (SK-MEL-2 melanoma)
3.39 µM: TGI (MCF7 breast)
11.7 µM: TGI (SN12C renal)
7.84 µM: TGI (NCI/ADR-RES ovarian)
3.38 µM: TGI (NCI-H522 lung)
5.75 µM: TGI (HCT-15 colon)
19.6 µM: TGI (EKVX NSCLC)
3.86 µM: TGI (OVCAR-4 ovarian)
11.4 µM: TGI (SNB-75 CNS) | TGI (HOP-62 NSCLC)
9.89 µM: TGI (HS 578T breast)
2.99 µM: TGI (SR leukemia)
7.76 µM: TGI (MDA-MB-231 breast)
14.5 µM: TGI (HT29 colon) | TGI (SK-MEL-5 melanoma) | TGI (OVCAR-5 ovarian)
9.51 µM: TGI (UO-31 renal)
2.35 µM: TGI (CAKI-1 renal)
7.6 µM: TGI (TK-10 renal)
inactive: GI50 (EKVX NSCLC) 3.59 µM | GI50 (NCI-H460 lung) 2.11 µM | GI50 (IGROV1 ovarian) 1.25 µM | GI50 (OVCAR-8 ovarian) 3.74 µM | GI50 (786-0 renal) 1.25 µM | GI50 (HS 578T breast) 2.84 µM | GI50 (SK-MEL-28 melanoma) 2.39 µM | GI50 (OVCAR-3 ovarian) 0.447 µM | GI50 (LOX IMVI melanoma) 1.35 µM | GI50 (A498 renal) 3.34 µM | GI50 (UACC-62 melanoma) 3.99 µM | GI50 (NCI-H23 lung) 2.09 µM | GI50 (SNB-75 CNS) 3.19 µM | GI50 (TK-10 renal) 1.66 µM | GI50 (HT29 colon) 1.27 µM | GI50 (PC-3 prostate) 1.09 µM | GI50 (SF-539 CNS) 3.68 µM | GI50 (SK-MEL-5 melanoma) 5.73 µM | GI50 (RXF 393 renal) 0.65 µM | GI50 (DU-145 prostate) 0.893 µM | GI50 (M14 melanoma) 2.84 µM | GI50 (HOP-62 NSCLC) 4.64 µM | GI50 (HCC-2998 colon) 1.72 µM | GI50 (OVCAR-5 ovarian) 3.6 µM | GI50 (SK-MEL-2 melanoma) 3.6 µM | GI50 (U251 CNS) 2.57 µM | GI50 (MDA-MB-231 breast) 1.41 µM | GI50 (OVCAR-4 ovarian) 0.98 µM | GI50 (SK-OV-3 ovarian) 5.37 µM | GI50 (NCI-H522 lung) 1.14 µM | GI50 (BT-549 breast) 3.57 µM | GI50 (SF-268 CNS) 1.8 µM | GI50 (COLO 205 colon) 1.32 µM | GI50 (KM12 colon) 1.54 µM | GI50 (HCT-15 colon) 0.94 µM | GI50 (SF-295 CNS) 4.24 µM | GI50 (MALME-3M melanoma) 1.57 µM | GI50 (UO-31 renal) 1.05 µM | GI50 (MDA-MB-435) 2.65 µM | GI50 (SN12C renal) 2.06 µM | GI50 (NCI-H226 lung) 4.96 µM | GI50 (MCF7 breast) 0.792 µM | GI50 (UACC-257 melanoma) 5.87 µM | GI50 (CAKI-1 renal) 0.436 µM | GI50 (A549 NSCLC) 3.98 µM | GI50 (SNB-19 CNS) 5.5 µM | GI50 (NCI/ADR-RES ovarian) 1.29 µM
7.99 µM: TGI (MDA-MB-435)
9.4 µM: TGI (SF-268 CNS)
22 µM: TGI (SNB-19 CNS)
20.4 µM: TGI (SK-OV-3 ovarian)
6.11 µM: TGI (HCT-116 colon) | TGI (786-0 renal)
23.3 µM: TGI (UACC-257 melanoma)
